From US11926625B2, “HPK1 antagonists and uses thereof” (Nimbus Saturn, Inc., priority 2021, dated 2024)

molecular target: T1, HPK1 (Homo sapiens, UniProt Q92918); test: HPK1 biochemical enzyme assay (microfluidic mobility shift, Caliper); conditions: 1.5 nM HPK1 (Invitrogen), 1 mM ATP, 30 min preincubation, 60 min at RT, top concentration 3 μM; read-out: HPK1 1000UMATP caliper IC50
T1 construct: purchased Invitrogen
Description: Example 20. HPK1 Biochemical Enzyme Assay
HPK1 biochemical enzyme assay: HPK1 enzyme inhibition was measured using a microfluidic mobility shift assay. Reactions were performed in a 384-well plate, containing 1.5 nM HPK1 (Invitrogen), in assay buffer (Cama Biosciences; pH 7.4). Test compounds were titrated in ten point curves (top final assay concentration 3 μM), and preincubated with enzyme/substrate mix for 30 min prior to initiation of the reaction by addition of ATP (1 mM final concentration) and substrate (1 μM final concentration; Carna Biosciences) diluted in assay buffer supplemented by MgCl2 (final assay concentration of 5 mM). Following 60 min incubation at RT, the reaction was terminated by addition of 60 μl/well termination buffer (Carna Biosciences) and signal determination using a Caliper EZ Reader (Perkin Elmer, UK).

T1 sequence (Q92918 whole entry): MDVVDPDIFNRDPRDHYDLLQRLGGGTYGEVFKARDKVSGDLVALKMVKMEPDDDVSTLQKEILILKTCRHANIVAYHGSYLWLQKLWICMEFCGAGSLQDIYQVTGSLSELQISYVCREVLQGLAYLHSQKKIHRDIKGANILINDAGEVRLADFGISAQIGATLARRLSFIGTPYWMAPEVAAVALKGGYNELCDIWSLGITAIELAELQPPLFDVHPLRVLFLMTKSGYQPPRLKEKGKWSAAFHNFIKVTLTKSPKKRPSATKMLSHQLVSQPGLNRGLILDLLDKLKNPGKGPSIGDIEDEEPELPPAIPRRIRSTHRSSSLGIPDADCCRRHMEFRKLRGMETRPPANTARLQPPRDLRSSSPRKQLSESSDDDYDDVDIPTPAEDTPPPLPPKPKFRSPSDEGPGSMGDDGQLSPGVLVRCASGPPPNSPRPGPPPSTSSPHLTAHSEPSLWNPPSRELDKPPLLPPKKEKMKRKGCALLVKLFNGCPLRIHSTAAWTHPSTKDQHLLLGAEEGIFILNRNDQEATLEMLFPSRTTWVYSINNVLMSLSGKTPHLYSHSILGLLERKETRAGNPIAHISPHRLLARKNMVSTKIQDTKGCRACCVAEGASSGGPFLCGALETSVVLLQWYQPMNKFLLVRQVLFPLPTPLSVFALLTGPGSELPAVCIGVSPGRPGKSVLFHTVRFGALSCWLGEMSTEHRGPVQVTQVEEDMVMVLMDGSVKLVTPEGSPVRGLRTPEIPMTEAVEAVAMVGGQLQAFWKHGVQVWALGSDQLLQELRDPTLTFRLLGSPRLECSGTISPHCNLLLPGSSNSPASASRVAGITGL

| Compound | IC50 |
| --- | --- |
| O=C1NCc2c(C3CCOCC3)ncc(Nc3ccc(N4CCNCC4)cn3)c21 [Compound I-2, 7-[(5-piperazin-1-yl-2-pyridyl)amino]-4-tetrahydropyran-4-yl-2,3-dihydropyrrolo [3,4-c]pyridin-1-one] | 1000 to 5000 nM |
| O=C1NCc2c(-c3c(F)cccc3F)ncc(Nc3ccc(N4CCNCC4)cn3)c21 [Compound I-3, 4-(2,6-difluorophenyl)-7-[(5-piperazin-1-yl-2-pyridyl)amino]-2,3-dihydropyrrolo [3,4-c]pyridin-1-one] | 1000 to 5000 nM |
| CS(=O)(=O)c1ncc(Nc2ccc(N3CCNCC3)cn2)c2c1CNC2=O [Compound I-5, 4-methylsulfonyl-7-[(5-piperazin-1-yl-2-pyridyl)amino]-2,3-dihydropyrrolo [3,4-c]pyridin-1-one] | 1000 to 5000 nM |
| COc1ccc(-c2ncc(Nc3ccc(N4CCNCC4)cn3)c3c2CNC3=O)cc1 [Compound I-6, 4-(4-methoxyphenyl)-7-[(5-piperazin-1-yl-2-pyridyl)amino]-2,3-dihydropyrrolo [3,4-c]pyridin-1-one] | 1000 to 5000 nM |
| NC(=O)c1ncc(Nc2ccc(N3CCNCC3)cn2)c2c1CNC2=O [Compound I-8, 1-oxo-7-[(5-piperazin-1-yl-2-pyridyl)amino]-2,3-dihydropyrrolo [3,4-c]pyridine-4-carboxamide] | 1000 to 5000 nM |
| O=C1NCc2c(-c3ccccc3)ncc(Nc3ccc(N4CCNCC4)cn3)c21 [Compound I-11, 4-phenyl-7-[(5-piperazin-1-yl-2-pyridyl)amino]-2,3-dihydropyrrolo [3,4-c]pyridin-1-one] | 1000 to 5000 nM |
| O=C1NCc2c(C3CC3)ncc(Nc3ccc(N4CCNCC4)cn3)c21 [Compound I-12, 4-cyclopropyl-7-[(5-piperazin-1-yl-2-pyridyl)amino]-2,3-dihydropyrrolo [3,4-c]pyridin-1-one] | 1000 to 5000 nM |
| O=C1NCc2c(-c3ccncc3)ncc(Nc3ccc(N4CCC(O)CC4)cn3)c21 [Compound I-13, 7-[[5-(4-hydroxy-1-piperidyl)-2-pyridyl]amino]-4-(4-pyridyl)-2,3-dihydropyrrolo [3,4-c]pyridin-1-one] | 1000 to 5000 nM |
| O=C1NCc2c(-c3ccncc3)ncc(Nc3ccc(N4CCOCC4)cn3)c21 [Compound I-14, 7-[(5-morpholino-2-pyridyl)amino]-4-(4-pyridyl)-2,3-dihydropyrrolo [3,4-c]pyridin-1-one] | 1000 to 5000 nM |
| CN1CCN(c2ccc(Nc3cnc(-c4ccncc4)c4c3C(=O)NC4)nc2)CC1 [Compound I-15, 7-[[5-(4-methylpiperazin-1-yl)-2-pyridyl]amino]-4-(4-pyridyl)-2,3-dihydropyrrolo [3,4-c]pyridin-1-one] | 1000 to 5000 nM |

Other lines, results leading:

| IC50 | Compound |
| --- | --- |
| < 1000 nM | O=C1NCc2c(-c3ccncc3)ncc(Nc3ccc(N4CCNCC4)cn3)c21 [Compound I-1, 7-[(5-piperazin-1-yl-2-pyridyl)amino]-4-(4-pyridyl)-2,3-dihydropyrrolo [3,4-c]pyridin-1-one] |
| 1000 to 5000 nM | O=C1NCc2c(-c3ccccn3)ncc(Nc3ccc(N4CCNCC4)cn3)c21 [Compound I-4, 7-[(5-piperazin-1-yl-2-pyridyl)amino]-4-(2-pyridyl)-2,3-dihydropyrrolo [3,4-c]pyridin-1-one] |
| 1000 to 5000 nM | O=C1NCc2c(-c3cccnc3)ncc(Nc3ccc(N4CCNCC4)cn3)c21 [Compound I-7, 7-[(5-piperazin-1-yl-2-pyridyl)amino]-4-(3-pyridyl)-2,3-dihydropyrrolo [3,4-c]pyridin-1-one] |
| 1000 to 5000 nM | Cc1cc(-c2ncc(Nc3ccc(N4CCNCC4)cn3)c3c2CNC3=O)ccn1 [Compound I-9, 4-(2-methyl-4-pyridyl)-7-[(5-piperazin-1-yl-2-pyridyl)amino]-2,3-dihydropyrrolo [3,4-c]pyridin-1-one] |
| 1000 to 5000 nM | O=C1NCc2c(-c3ncco3)ncc(Nc3ccc(N4CCNCC4)cn3)c21 [Compound I-10, 4-oxazol-2-yl-7-[(5-piperazin-1-yl-2-pyridyl)amino]-2,3-dihydropyrrolo [3,4-c]pyridin-1-one] |
